Drawing on a melting point compilation (Tetko et al.; mined from patent text by program, amines drawn as free bases though some values may be those of a salt), this text covers melting point for 92 compounds.

Usually melting point stands for the temperature of the solid-liquid transition. As for `CC1(C)NC(=O)N(c2ccc([N+](=O)[O-])cc2)C1=O`, the melting point lay within 176 to 177 °C.

In turn, `CCOC(=O)Cn1c(=O)c2cc(Cc3ncc[nH]3)ccc2n(Cc2ccc(Cl)c(Cl)c2)c1=O` showed a melting point of 201 to 202 °C.

Turning to `O=c1c2c(Cc3ccccc3)n[nH]c2c2cccnc2n1-c1cccc(OC(F)(F)F)c1`, the melting point lay within 249 to 251 °C.

As to `[N-]=[N+]=NC1CCc2ccccc2NC1=O` (configuration not stated), the melting point was in the range of 142 to 145 °C.

`C[Si](C)(C)CCOC(=O)CN1C(=O)[C@@H](N2C(=O)c3ccccc3C2=O)CSC1c1ccccc1` (some centres not stated) gave a melting point of 58 to 60 °C.

In the case of `c1ccc(COc2cccc3cc(C4=NCCS4)[nH]c23)cc1`, the melting point was in the range of 129 to 130 °C.

Consider `CCCCOC(=N)c1sc2ccccc2c1O`, for which the melting point came to 185 °C.

As to `CC(C)(C)c1cc(I)c2c(c1)C=NS(=O)(=O)O2`, the melting point is 130 to 134 °C.

In the case of `CC(C)(C)OC(=O)N[C@H](Cc1cccc(OC(F)(F)C(F)F)c1)[C@@H](O)c1csc(-c2ccccc2)n1` (racemic), the melting point fell in the range of 127 to 128 °C.

`C[C@H]1N(C(=O)c2ccc(OCC(F)(F)C(F)F)cc2)CC(O)O[C@@]1(Cn1cncn1)c1ccc(F)cc1F` (relative stereo) showed a melting point of 209 to 210 °C.

As to `CCCNC(C)=C1C(=O)OC(=O)C(C(C)=O)=C1O`, the melting point lay in the range of 145 to 148 °C.

`COC(=O)c1ccc(OCCC2CC(=O)N(c3ccc(Cl)cc3)C2)cc1` (configuration not stated) returned a melting point of 126 to 128 °C.

In turn, `N#Cc1c(Cl)c(Cl)n(CC#CI)c1-c1ccc(Cl)c(Cl)c1` had a melting point of 115 to 116 °C.

With `C(=C\c1ccoc1)/c1ccccc1`, the melting point worked out at 96 °C.

In turn, `CCNC(=O)c1cc(C)c(C(c2cc(F)ccc2F)S(=O)(=O)c2ccc(F)cc2)cn1` (configuration not stated) came in with a melting point of 191 to 193 °C.

Regarding `COc1cc(COc2nn(-c3ccccc3)cc2/C=C/CO)ccc1OCc1nc(-c2ccco2)oc1C`, the melting point fell in the range of 120 to 121 °C.

On to `Oc1ccc(N2CCN(n3ccnc3)CC2)cc1`, for which the melting point stood at 282 °C.

`COCCO[C@@H]1c2ccn3c(CO)c(C)nc3c2N[C@H](c2ccccc2)[C@H]1O` registered a melting point of 180 to 183 °C.

`COc1ccc2sc(=O)[nH]c2c1`: the melting point is 168 to 170 °C.

On to `COc1ccc(-c2ccc(C(C)=NOCCO)cc2)cc1`, for which the melting point was in the range of 164 to 166 °C.

Consider `CNC(=O)C1=CC(C)(CF)Oc2ccc([N+](=O)[O-])cc21` (configuration not stated), for which the melting point fell in the range of 171 to 173 °C.

`C=CCOC(=O)c1ccc(-c2ccc3cc(OCCCCC(=O)OCC)c(C45CC6CC(CC(C6)C4)C5)cc3c2)cc1` registered a melting point of 117 to 118 °C.

`CCCN=C1SC(=CC(=O)O)C(=O)N1CCC` gave a melting point of 101 to 103 °C.

`c1ccc(Nc2csc(-c3cn[nH]c3)n2)nc1` displayed a melting point of 209 to 210 °C.

As for `CCOC(=O)CCc1ccc(O)c(OCc2ccccc2)c1`, the melting point was 60 to 61 °C.

With `Cc1nnc2ccc(-c3cccc(N(C)C(=O)C4CCC4)c3)nn12`, the melting point was in the range of 171 to 173 °C.

With `O=C1C(=O)c2ccccc2C2=C1SCC1(CCN(C(=O)c3ccco3)CC1)O2`, the melting point was 165 °C.

`NS(=O)(=O)c1ccc(-c2cn(-c3nc(-c4cccc(Cl)c4)cc(C(F)(F)F)n3)cn2)s1`: the melting point worked out at 280 °C.

Compound `CCN(CC)C(=O)Cc1ccccc1OC` came in with a melting point of 141 °C.

On to `O=C(CCCCCOc1ccc2c(c1)[nH]c1ccccc12)NO`, for which the melting point stood at 192 °C.

For `ON=CCc1cccs1`, the melting point was 92 °C.

The compound `CC(=O)OCC(=O)C12OCOC1CC1C3CCC4=CC(=O)C=CC4(C)C3(Cl)C(O)CC12C` (configuration not stated) returned a melting point of 244 to 245 °C.

Regarding `COC(=O)CCC#Cc1cc(Cl)ccc1NS(=O)(=O)c1cccc(C)c1`, the melting point was determined as 69 °C.

Turning to `C=CCCCCCCCCC(O)CC(=O)O` (configuration not stated), the melting point was 62 to 64 °C.

`CN1CCC2(CC1)NC(c1ccccc1)c1cc(Cl)ccc1N(C)C2=O` (configuration not stated): the melting point was found to be 196 °C.

For the compound `Nc1ccc(S(=O)(=O)Nc2ccc(OP(N)(N)=O)cc2)cc1`, the melting point is 174 to 175 °C.

`ClCCN(CCCl)CCCCOc1cccc(Nc2c3ccccc3nc3ccccc23)c1` came in with a melting point of 126 to 127 °C.

`Cc1cc(-c2cc(C(=O)O)c(=O)n(CC(C)C)n2)ccc1F` gave a melting point of 129 to 132 °C.

Compound `CCOC(=O)c1cc2cc(CC#N)ccc2o1` showed a melting point of 76 to 77 °C.

For `O=C(CCN1CCN(c2ccc3ccccc3n2)CC1)c1csc2ccccc12`, the melting point is 92 to 96 °C.

Compound `COC(=O)Cc1cccc(NC(=O)NCC(=O)N2[C@@H](c3ccccc3)SC[C@H]2C(=O)OC(C)(C)C)c1` displayed a melting point of 69 °C.

With `Cc1ccc(S(=O)(=O)NC(=N)CCN2CCOC2=O)cc1`, the melting point was in the range of 129 to 134 °C.

With `COCCOC(=O)C1=C(C)NN=C(C(=O)OC(C)C)C1c1cccc([N+](=O)[O-])c1` (configuration not stated), the melting point is 146 to 148 °C.

In turn, `COc1ccc(CSc2cccnc2C(=O)O)cc1` showed a melting point of 170 to 172 °C.

`COc1ccc(Cl)cc1-c1cccc2c1OC(CN)C2` (configuration not stated) showed a melting point of 149 to 152 °C.

Regarding `CC(=O)Oc1ccc(/C=C2/Sc3nc(Nc4ccc(N5CCN(C)CC5)cc4)ncc3NC2=O)cc1`, the melting point fell in the range of 168 to 171 °C.

On to `O=C(Nc1ccc2nc(-c3ccccc3)oc2n1)c1ccccc1`, for which the melting point lay in the range of 191 to 192 °C.

`COCNC(=O)c1c(-c2ccc(Cl)cc2)nsc1-c1ccccc1` had a melting point of 119 to 120 °C.

For the compound `COC(=O)CN1CCC(NC(=O)OC(C)(C)C)CC1`, the melting point is 96 to 98 °C.

Turning to `NC(=O)c1cn(CCO)nc1[N+](=O)[O-]`, the melting point fell in the range of 148 to 150 °C.

Take `COc1cc(OC)nc(SCc2nc(C(F)(F)F)ccc2C(=O)O)n1`: the melting point lay within 123 to 124 °C.

As to `CC(=O)Nc1ccc(N2CCN(c3ccc(O)cc3)CC2)cc1`, the melting point was 256 °C.

In turn, `O=C(N[C@H]1CC[C@H](CCN2CCC(c3ccc(F)c4occc34)CC2)CC1)C1CCOCC1` came in with a melting point of 208 °C.

`CC1=N/C(=C\c2c[nH]c3ncccc23)C(=O)N1CCN1CCOCC1` gave a melting point of 235 to 240 °C.

The compound `Nc1ncc(-c2ccccc2COc2ccccc2)s1` yielded a melting point of 154 °C.

Take `Cn1nc(C(=O)NCc2ccc(Cl)cc2)c(=O)c2cc(I)ccc21`: the melting point was 194 to 195 °C.

For the compound `CCCCNC(=O)COC1C(O)C(CO)OC(Oc2ccc(N)cc2)C1O` (configuration not stated), the melting point was found to be 135 °C.

The compound `Clc1cc(N2CCOCC2)nc(-n2cnc3ccccc32)n1` registered a melting point of 178 to 181 °C.

Take `COc1ccc2nc(-c3cc(C(F)(F)F)nn3-c3ccc(S(C)(=O)=O)cc3)sc2c1`: the melting point lay in the range of 217 to 218 °C.

Compound `COc1cc(CO)ccc1NC(C)=O` showed a melting point of 104 °C.

For `CCNC(=O)c1c(Br)cccc1[Si](C)(C)C`, the melting point fell in the range of 121 to 122 °C.

As for `CCOC(=O)c1cn(-c2c(OCc3ccccc3)cccc2OCc2ccccc2)cn1`, the melting point lay in the range of 125 to 126 °C.

With `Clc1ccc2c(NCCN3CCCCC3)ccnc2c1`, the melting point lay within 148 to 151 °C.

`O=S(=O)(CCO)CCC(c1cc(F)ccc1F)S(=O)(=O)c1ccc(Cl)cc1` (configuration not stated) returned a melting point of 111 to 113 °C.

In turn, `N#CN1CCC(c2nn(-c3ccc(F)cc3)c3ccccc23)CC1` showed a melting point of 108 to 110 °C.

Compound `CC(=O)NCCc1c[nH]c2ccc(OC(=O)Oc3ccc([N+](=O)[O-])cc3)cc12` registered a melting point of 153 to 156 °C.

Compound `O=c1nc(-c2ccccn2)sc2ccc(OCCCc3ccccc3)cc12` registered a melting point of 170 °C.

Consider `O=C(Nc1ccc(-n2nc(C3CC3)cc2C2CC2)c(F)c1)c1c(Cl)cncc1Cl`, for which the melting point was in the range of 280 to 281 °C.

In turn, `CCCS(=O)(=O)c1csc2c(=O)n([C@H](C)[C@](O)(Cn3cncn3)c3ccc(F)cc3F)cnc12` showed a melting point of 115 to 122 °C.

On to `CCN(CC)CCOC(=C1C2CC3C(C2)C13)c1ccccc1`, for which the melting point was in the range of 120 to 123 °C.

The compound `Cc1cccc(Nc2cc(Nc3cccc(OCC(N)=O)c3)ncn2)c1` came in with a melting point of 192 to 194 °C.

In turn, `OCCNC(=S)Nc1cccc2ccoc12` came in with a melting point of 138 to 139 °C.

`CCNc1cc(O)c(C(C)=O)cc1C(C)=O` yielded a melting point of 103 to 104 °C.

In turn, `NN=C1CCCCC1n1nc(-c2c(-c3ccccc3)nn3ccccc23)ccc1=O` (configuration not stated) had a melting point of 161 to 162 °C.

Compound `CCCCc1c(C(C)C)nc(C(C)C)c(CO)c1-c1ccccc1` displayed a melting point of 83 to 84 °C.

On to `CC(C)(C)C1=C(C#N)C(c2cccc3nonc23)c2c[nH]nc2N1` (configuration not stated), for which the melting point came out at 204 °C.

For `CCC=CCn1c(=O)sc2c(=O)[nH]c(N)nc21`, the melting point fell in the range of 240 to 243 °C.

In the case of `Cc1ccc(CC(=O)N[C@H]2C[C@H](C(=O)O)Nc3cc(Cl)cc(Cl)c32)cc1` (relative stereo), the melting point was 229 to 230 °C.

Compound `CC(C(=O)O)c1ccc(Sc2nccs2)cc1` (configuration not stated) yielded a melting point of 85 to 87 °C.

With `CCOC(=O)c1oc2ccc(OC)cc2c1OCC`, the melting point was 50 to 51 °C.

Regarding `CC(=O)c1ccc(Nc2nc(N)c(C(=O)c3sccc3C)s2)cc1`, the melting point lay in the range of 171 to 172 °C.

Regarding `O=C(CC(c1ccccc1)c1ccccc1)N1CCN(CCc2cc3ccccc3o2)CC1`, the melting point lay in the range of 123 to 124 °C.

`O=C1CN(CCCBr)Oc2ccccc21` came in with a melting point of 90 to 92 °C.

Compound `CC(C)(C)c1c[nH]c(S)n1` had a melting point of 232 to 234 °C.

Consider `CN(c1ccc(OCCCCBr)cc1)S(=O)(=O)c1ccc(C(F)(F)F)cc1`, for which the melting point lay within 91 to 92 °C.

In turn, `CC1(C)C=Cc2c(c3ccccc3n(Cc3ccccc3)c2=O)O1` came in with a melting point of 91 to 92 °C.

Turning to `Cn1nc(-c2cccc(C(F)(F)F)c2)c(O)c1C(=O)O`, the melting point was 192 to 194 °C.

As to `CCC1c2cccn2-c2ccc(F)cc2N1C(=O)c1ccc(OC)cc1` (configuration not stated), the melting point fell in the range of 39 to 42 °C.

As for `CCNC(=C[N+](=O)[O-])NCCSCc1[nH]cnc1C`, the melting point is 171 to 172 °C.

Compound `O=c1[nH]nc(-c2ccc(Cl)cc2)o1` gave a melting point of 125 to 127 °C.

As to `O=[N+]([O-])c1cccc2c(O)ccnc12`, the melting point is 204 to 206 °C.

`O=C(OCCOc1ccccc1)c1sc(Cl)nc1C(F)(F)F` gave a melting point of 70 to 72 °C.
